Columns and labels:
Test in all cases: normalised response (% of control), CellTiter-Glo; higher = more viable cells (100 = DMSO, 0 = benzethonium chloride kill control)
Details in all cases: incubation time: 72 h
BT-474 = tested on: BT-474
In short: (§1)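 Breast cancer cell lines (20 µl suspension) were seeded into 384-well plates holding compound at 5 concentrations in 10-fold steps over a compound-specific 10,000-fold range, then incubated 72 h. CellTox Green fluorescence (485/520 nm) was read first, then CellTiter-Glo luminescence after 10 min at room temperature. Each plate was normalised to 0.1 % DMSO (100) and a positive kill control (0). Each value is the normalised signal at a single concentration of the series.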

BT-549 = tested on: BT-549
In short: as §1

CAL-120 = tested on: CAL-120
In short: as §1

CAL-148 = tested on: CAL-148
In short: as §1

CAL-51 = tested on: CAL-51
In short: as §1

CAL-85-1 = tested on: CAL-85-1
In short: as §1

DU-4475 = tested on: DU-4475
In short: as §1

HCC1143 = tested on: HCC1143
In short: as §1

HCC1599 = tested on: HCC1599
In short: as §1

HCC1937 = tested on: HCC1937
In short: as §1

HDQ-P1 = tested on: HDQ-P1
In short: as §1

Hs578T = tested on: Hs578T
In short: as §1

MCF-10A = tested on: MCF-10A
In short: as §1

MDA-MB-231 = tested on: MDA-MB-231
In short: as §1

MDA-MB-436 = tested on: MDA-MB-436
In short: as §1

MDA-MB-453 = tested on: MDA-MB-453
In short: as §1

MDA-MB-468 = tested on: MDA-MB-468
In short: as §1

MFM-223 = tested on: MFM-223
In short: as §1

SK-BR-3 = tested on: SK-BR-3
In short: as §1

SMILES | normalised response (BT-474) | normalised response (BT-549) | normalised response (CAL-120) | normalised response (CAL-148) | normalised response (CAL-51) | normalised response (CAL-85-1) | normalised response (DU-4475) | normalised response (HCC1143) | normalised response (HCC1599) | normalised response (HCC1937) | normalised response (HDQ-P1) | normalised response (Hs578T) | normalised response (MCF-10A) | normalised response (MDA-MB-231) | normalised response (MDA-MB-436) | normalised response (MDA-MB-453) | normalised response (MDA-MB-468) | normalised response (MFM-223) | normalised response (SK-BR-3)
O=C(Cc1ccc(-c2ccc(OCCN3CCOCC3)cc2)cn1)NCc1ccccc1 [KX2-391] (1 nM) | 105% | 105% | 97.2% | 107% | 107% | 95.2% | 101% | 105% | 83.3% | 99.4% | 100% | 103% | 121% | 107% | 102% | 113% | 102% | 106% | 120%
O=C(Cc1ccc(-c2ccc(OCCN3CCOCC3)cc2)cn1)NCc1ccccc1 [KX2-391] (10 nM) | 103% | 102% | 101% | 112% | 73.2% | 97.3% | 104% | 104% | 100% | 98.4% | 98% | 103% | 107% | 100% | 98% | 101% | 94.6% | 106% | 87.6%
N#Cc1ccc(C(c2ccc(C#N)cc2)n2cncn2)cc1 [Letrozole] (1 nM) | 99.8% | 103% | 95.7% | 92% | 121% | 100% | 97.8% | 97.5% | 122% | 89.2% | 94.1% | 105% | 110% | 98.2% | 104% | 113% | 104% | 98.8% | 106%
CCN(CC)CCCC(C)Nc1c2ccc(Cl)cc2nc2ccc(OC)cc12 (stereo not given) [Mepacrine] (5 nM) | 96.1% | 104% | 107% | 94.5% | 97.8% | 93.8% | 96.2% | 97.5% | 95.6% | 102% | 105% | 100% | 107% | 99.8% | 111% | 96.9% | 100% | 97.2% | 104%
CCN(CC)CCCC(C)Nc1c2ccc(Cl)cc2nc2ccc(OC)cc12 (stereo not given) [Mepacrine] (50 nM) | 102% | 104% | 98.6% | 96.8% | 120% | 101% | 96.1% | 98% | 106% | 104% | 104% | 99.1% | 92.9% | 94% | 96.2% | 96.1% | 103% | 98.7% | 95.3%
C[C@H]1C[C@@H]2[C@H]([C@@H](O)C[C@@]3(C)[C@H]2CC[C@]3(O)C(=O)CO)[C@@]2(C)C=CC(=O)C=C12 [Methylprednisolone] (1 nM) | 110% | 100% | 103% | 120% | 100% | 94.5% | 108% | 99.1% | 113% | 99.3% | 99.6% | 103% | 103% | 105% | 99.5% | 116% | 104% | 103% | 109%
C[C@H]1C[C@@H]2[C@H]([C@@H](O)C[C@@]3(C)[C@H]2CC[C@]3(O)C(=O)CO)[C@@]2(C)C=CC(=O)C=C12 [Methylprednisolone] (10 nM) | 127% | 101% | 96.2% | 111% | 116% | 112% | 108% | 104% | 93.7% | 101% | 96.8% | 103% | 113% | 135% | 110% | 108% | 99.8% | 112% | 109%
O=C(O)C(=O)O.[NH-][C@@H]1CCCC[C@H]1[NH-].[Pt+2] [Oxaliplatin] (1 nM) | 91.9% | 103% | 98.5% | 91.3% | 110% | 91.3% | 91.7% | 93.2% | 95% | 93.9% | 98.2% | 98.9% | 96.6% | 94.2% | 106% | 86.8% | 86.7% | 91.2% | 90%
O=C(O)C(=O)O.[NH-][C@@H]1CCCC[C@H]1[NH-].[Pt+2] [Oxaliplatin] (10 nM) | 101% | 96.8% | 101% | 83.7% | 124% | 98.7% | 90.9% | 94% | 95% | 94.8% | 99.8% | 101% | 91% | 92.7% | 104% | 81.9% | 97.2% | 92% | 98.4%
C=CCc1cccc(/C=N/NC(=O)CN2CCN(Cc3ccccc3)CC2)c1O [PAC-1] (1 nM) | 97.7% | 105% | 96.8% | 96% | 129% | 99.7% | 100% | 101% | 101% | 106% | 105% | 104% | 113% | 103% | 97.5% | 103% | 109% | 102% | 109%
